Assay results from patent US20070161634A1, “Compounds as CCR5 antagonists” (priority 2004, published 2007).
Where two headings read alike, the source gives them in different places.

How the values were obtained:
CCR5 receptor = CCR5 receptor (Homo sapiens, UniProt P51681); assay: [35S]GTPγS binding assay; type: biochemical
Source text: [^35S]GTPγS binding assay
CCR5 receptor binds to agonists and changes its conformation which enables it to interact with and activate G protein, a heterotrimer which consists of subunits α and βγ. The capability of G protein α subunit binding to GTP depends on the effect between CCR5 and the agonists, therefore, the amount of α subunit bound GTP should reflect the agonists activity on the CCR5 receptor. In the GTPγS binding assay, [^35S]GTPγS is resistant to the GTPase activity of α subunit, and thus cannot be hydrolyzed when bound to G protein, making it accurate to reflect the receptor activation. Radiolabled [^35S]GTPγS can also serve as marker for detection in place of GTP. When CCR5 is not activated, α subunit is bound to GDP, but when CCR5 is activated, α subunit binds to [^35S]GTPγS, therefore, measurement of the number of the α subunit-bound ^35S-GTPγS can reflect the CCR5 activation level.
CCR5 activation of G-protein was measured according to assays below:
Permanent cell line expressing CHO of CCR5 (available at Euroscreen S.A., Belgium) was lysed by lysis buffer (5 mM Tris HCl, pH 7.5, 5 mM EDTA and 5 mM EGTA), and centrifuged at 15,000×g for 10 min. Cell membrane was resuspended with reaction buffer (5 mM Tris HCl, pH 7.5, 5 mM MgCl2, 1 mM EGTA, 100 mM NaCl), and protein concentrations were determined using Bioford assay (Bio-rad). [^35S]GTPγS binding assay was performed in the 100 μl reaction buffer system, which contains 10 ug membrane protein, 40 uM GDP and 0.5 nM [^35S]GTPγS (1200 Ci/mmol). After adding the study compounds, the system was vortexed and placed on ice for 5 min, and then CCR5 agonist was added (10 nM RANTES or 30 nM MIP1β). After vortexing, the reaction tubes were incubated at 30° C. for 1 h. After the reaction was complete, the reaction tubes were placed on ice and diluted with PBS to terminate the reaction. After suction through the GF/C filter membrane under vacuum, the membrane bound radioactivity was measured with a scintillation counter. Basal binding was measured without presence of agonist, and non-specific binding was measured in the presence of 10 mM nonisotopical GTPγS. The binding ratio of [^35S]GTPγS was calculated according to 100×[c.p.m.sample−c.p.m. non-specific]/[c.p.m.basal−c.p.m. non-specific]. IC50 was the compound concentration at which half of the [^35S]GTPγS binding induced by 10 nM RANTES or 30 nM MIP1β was inhibited, and the value was obtained from the concentration-inhibition curve (6-7 points for concentrations of each compound).

CXCR4 = CXCR4 (Homo sapiens, UniProt P61073); assay: effects on the activation of CXCR4 receptor; conditions: at the concentration of 10,000 nM
Chain of CXCR4 (P61073 whole entry, species assumed): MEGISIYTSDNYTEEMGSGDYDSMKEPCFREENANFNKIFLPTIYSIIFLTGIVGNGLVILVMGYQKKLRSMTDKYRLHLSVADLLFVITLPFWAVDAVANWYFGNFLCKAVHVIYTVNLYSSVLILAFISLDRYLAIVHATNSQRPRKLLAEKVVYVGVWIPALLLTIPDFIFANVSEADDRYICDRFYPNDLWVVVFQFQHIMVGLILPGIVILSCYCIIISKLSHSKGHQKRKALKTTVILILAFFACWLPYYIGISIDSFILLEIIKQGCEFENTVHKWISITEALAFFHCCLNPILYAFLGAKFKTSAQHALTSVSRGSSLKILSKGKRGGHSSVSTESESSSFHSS

CCR1 = biological target: T1, CCR1 (Homo sapiens, UniProt P32246); assay: effects on the activation of CCR1 receptor; conditions: at the concentration of 10,000 nM
T1 sequence (P32246 1-355): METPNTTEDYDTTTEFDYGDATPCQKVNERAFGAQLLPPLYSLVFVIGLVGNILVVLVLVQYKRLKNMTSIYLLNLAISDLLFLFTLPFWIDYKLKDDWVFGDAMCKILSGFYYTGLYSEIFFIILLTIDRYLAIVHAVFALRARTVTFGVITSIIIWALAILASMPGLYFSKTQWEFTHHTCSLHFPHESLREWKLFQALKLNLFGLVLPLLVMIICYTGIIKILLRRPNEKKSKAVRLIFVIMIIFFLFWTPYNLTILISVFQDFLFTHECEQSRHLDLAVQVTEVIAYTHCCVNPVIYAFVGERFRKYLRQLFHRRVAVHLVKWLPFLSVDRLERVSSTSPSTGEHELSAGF

MTT cytotoxicity assay = type: cell-based; conditions: human, peripheral blood mononuclear cells (PBMC) and Jurkat cells; MTT
Protocol: (§1) C. MTT Cytotoxicity Assay
(§2) Cells were prepared as single cell suspension, and cell densities were adjusted according to the cell size and cell features. Cells were inoculated with 100 ul culture media into 96 well plates, and incubated in 37° C. incubator (5% CO2, saturated humidity). The seeding densities were as follows: peripheral blood monouclear cells (PBMC) 10^5 cells /well, Jurket 4×10^4 cells/well. 24 h after cell inoculation, the compounds to be tested were added and incubated with cells. 48 h after inoculation, 10 μl MTT (Sigma, USA, 5 mg/ml, diluted with PBS and stored at −20° C.) was added to each well, and incubated for another 4 h in 37° C. incubator. Then add 50 μl formazane solvent (10%SDS-5%isopropanol−0.01M HCl) and incubate overnight. Determine OD570/OD630 nm at spectrophotometer, and calculate CC50 according to the inhibition curve.

[1] = tested on: peripheral blood monouclear cells (PBMC), Jurket; assay: MTT cytotoxicity assay; type: cell-based; conditions: at 10,000 nM
Protocol: as §1, §2

[2] = Table I, [35S]GTPγS binding, read-out: IC50
[3] = [35S]GTPγS binding initiated by 10 nM RANTES, read-out: IC50(nM) ± S.E.
[4] = Table I, class symbols, inhibition at 10,000 nM, read-out: IC50
[5] = [35S]GTPγS binding initiated by 10 nM RANTES, class symbols, inhibition at 10,000 nM, read-out: IC50(nM) ± S.E.

Chain of CCR5 receptor (P51681 whole entry): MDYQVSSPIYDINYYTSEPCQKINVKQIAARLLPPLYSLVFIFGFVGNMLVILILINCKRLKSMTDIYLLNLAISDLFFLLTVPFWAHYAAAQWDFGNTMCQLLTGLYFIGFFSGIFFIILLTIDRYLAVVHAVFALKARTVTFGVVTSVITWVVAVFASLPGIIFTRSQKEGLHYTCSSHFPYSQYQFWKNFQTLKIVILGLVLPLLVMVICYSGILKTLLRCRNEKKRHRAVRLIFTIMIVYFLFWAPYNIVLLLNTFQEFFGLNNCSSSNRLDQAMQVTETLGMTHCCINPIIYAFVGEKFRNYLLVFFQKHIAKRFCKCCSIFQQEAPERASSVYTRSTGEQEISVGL

Compound	IC50 (CCR5 receptor; [2]) [nM]	IC50 (CCR5 receptor; [3]) [nM]	other results
O=C(c1ccccc1)N1CC(CN2CCC(c3ccccc3)CC2)C(O)(c2ccccc2)C1 (centres unmarked) [I-b-b, (3-hydroxy-3-phenyl-4-[(4-phenylpiperidin-1-yl)methyl]pyrrolidin-1-yl)(phenyl)methanone]	2860 ± 860	2860 ± 60	
O=S(=O)(c1ccccc1)N1CC(CN2CCC(c3ccccc3)CC2)C(O)(c2ccccc2)C1 (centres unmarked) [I-b-d, 3-phenyl-4-[(4-phenylpiperidin-1-yl)methyl]-1-(phenylsulfonyl)pyrrolidin-3-ol]			IC50 (CCR5 receptor; [4]): > 10000 nM; IC50 (CCR5 receptor; [5]): > 10000 nM
OC1(CCCc2ccccc2)CCN(CC2CN(Cc3ccccc3)CC2(O)c2ccccc2)CC1 (centres unmarked) [I-b-h, 1-[(1-benzyl-4-hydroxy-4-phenylpyrrolidin-3-yl)methyl]-4-(3-phenylpropyl)piperidin-4-ol]	368 ± 52	368 ± 52	
OC1(c2ccc(F)cc2)CN(Cc2ccccc2)CC1CN1CCC(c2ccccc2)CC1 (centres unmarked) [I-b-j, 1-benzyl-3-(4-fluorophenyl)-4-((4-phenylpiperidin-1-yl)methyl)pyrrolidin-3-ol]			IC50 (CCR5 receptor; [4]): > 10000 nM; IC50 (CCR5 receptor; [5]): > 10000 nM
OC1(CCCc2ccccc2)CCN(CC2CN(Cc3ccccc3)CC2(O)c2ccc(F)cc2)CC1 (centres unmarked) [I-b-k, 1-{[1-benzyl-4-(4-fluorophenyl)-4-hydroxypyrrolidin-3-yl]methyl}-4-(3-phenylpropyl)piper idin-4-ol]	2510	2510	
CCN(C(=O)OCc1ccccc1)C1CCN(CC2CN(Cc3ccccc3)CC2(O)c2ccccc2)CC1 (centres unmarked) [II-a-a, Benzyl 1-[(1-benzyl-4-hydroxy-4-phenylpyrrolidin-3-yl)methyl]piperidin-4-yl (ethyl)carbamate]	401 ± 87.5	401 ± 87.5	activation or antagonism of CXCR4 receptor (CXCR4): do not activate or antagonize; activation or antagonism of CCR1 receptor (CCR1): do not activate or antagonize; CC50 at 24 h (MTT cytotoxicity assay): ~30000 nM; cytotoxicity on cells [1]: no significant cytotoxicity
CCN(C(=O)OCc1ccccc1)C1CCN(CC2CN(Cc3ccccc3)CC2(O)c2ccc(F)cc2)CC1 (centres unmarked) [II-a-b, Benzyl 1-[(1-benzyl-4-(4-fluorophenyl)-4-hydroxypyrrolidin-3-yl)methyl]piperidin-4-yl (ethyl)carbamate]	565 ± 64.5	565 ± 64.5	
CCN(C(=O)OCc1ccccc1)C1CCN(CC2CN(Cc3ccccc3)CC2(C)O)CC1 (centres unmarked) [II-a-c]			IC50 (CCR5 receptor; [4]): > 10000 nM; IC50 (CCR5 receptor; [5]): > 10000 nM
C=CCN(C(=O)OCc1ccc([N+](=O)[O-])cc1)C1CCN(CC2CN(Cc3ccccc3)CC2(O)c2ccccc2)CC1 (centres unmarked) [III-a-a, 4-nitrobenzyl allyl(1-((1-benzyl-4-hydroxy-4-phenylpyrrolidin-3-yl)methyl)piperidin-4-yl) carbamate]	~10000	~10000	activation or antagonism of CXCR4 receptor (CXCR4): do not activate or antagonize; activation or antagonism of CCR1 receptor (CCR1): do not activate or antagonize
C=CCN(C(=O)OCc1ccc([N+](=O)[O-])cc1)C1CCN(CC2CN(C(=O)c3ccccc3)CC2(O)c2ccccc2)CC1 (centres unmarked) [III-a-b, 4-nitrobenzyl allyl(1-((1-benzoyl-4-hydroxy-4-phenylpyrrolidin-3-yl)methyl)piperidin-4-yl) carbamate]	9.7 ± 0.7	9.7 ± 0.7	activation or antagonism of CXCR4 receptor (CXCR4): do not activate or antagonize; activation or antagonism of CCR1 receptor (CCR1): do not activate or antagonize; CC50 at 24 h (MTT cytotoxicity assay): ~30000 nM; cytotoxicity on cells [1]: no significant cytotoxicity
C=CCN(C(=O)OCc1ccccc1)C1CCN(CC2CN(C(=O)C3CCCC3)CC2(O)c2ccccc2)CC1 (centres unmarked) [III-a-h, benzyl allyl(1-((1-(cyclo-pentanecarbonyl)-4-hydroxy-4-phenylpyrrolidin-3-yl)methyl)piperi-din-4-yl) carbamate]	8.75	8.75	
C=CCN(C(=O)OCc1ccc(OC)cc1)C1CCN(CC2CN(C(=O)C3CCCC3)CC2(O)c2ccccc2)CC1 (centres unmarked) [III-a-i, 4-methoxybenzyl allyl(1-((1-(cyclo-pentanecarbonyl)-4-hydroxy-4-phenylpyrrolidin-3-yl)methyl)piperi-din-4-yl) carbamate]	4.33	4.33	
C=CCN(C(=O)OCc1ccc(Br)cc1)C1CCN(CC2CN(C(=O)C3CCCC3)CC2(O)c2ccccc2)CC1 (centres unmarked) [III-a-j, 4-bromobenzyl allyl(1-((1-cyclo-pentanecar-bonyl)-4-hydroxy-4-phenylpyrrolidin-3-yl)methyl) piperidin-4-yl) carbamate]	8.87	8.87	
C=CCN(C(=O)Nc1ccccc1)C1CCN(CC2CN(C(=O)C3CCCC3)CC2(O)c2ccccc2)CC1 (centres unmarked) [III-a-k, 1-allyl-1-(1-((1-(cyclopentane-carbonyl)-4-hydroxy-4-phenylpyrrolidin-3-yl)methyl)piperidin-4-yl)-3-phenylurea]	6.46	6.46	
C=CCN(C(=O)COc1ccccc1)C1CCN(CC2CN(C(=O)C3CCCC3)CC2(O)c2ccccc2)CC1 (centres unmarked) [III-a-l, N-allyl-N-(1-((1-(cyclopen-tanecarbonyl)-4-hydroxy-4-phenylpyrrolidin-3-yl)methyl)piperi-din-4-yl)-3-phenoxy acetamide]	13.6	13.6	
C[C@H]1[C@@H](CN2CCC(c3ccccc3)CC2)C(O)(c2ccccc2)CN1Cc1ccccc1 (some centres unmarked) [IV-a-a, 1-benzyl-5-methyl-3-phenyl-4-[(4-phenylpiperi-din-1-yl)methyl]py-rrolidin-3-ol]			IC50 (CCR5 receptor; [4]): > 10000 nM; IC50 (CCR5 receptor; [5]): > 10000 nM

Second part, led by results:

IC50 (CCR5 receptor; [2]) [nM]	IC50 (CCR5 receptor; [3]) [nM]	Compound	other results
~10000	~10000	OC1(c2ccc3c(c2)OCO3)CN(Cc2ccccc2)CC1CN1CCC(c2ccccc2)CC1 (centres unmarked) [I-a-a, 1-benzyl-3-(benzo[1,3]dioxol-5-yl)-4-[(4-phenylpiperidin-1-yl)methyl]pyrrolidin-3-ol]	
1160 ± 224	1160 ± 224	O=C(c1ccccc1I)N1CC(CN2CCC(c3ccccc3)CC2)C(O)(c2ccccc2)C1 (centres unmarked) [I-b-c, (3-hydroxy-3-phenyl-4-[(4-phenylpiperidin-1-yl)methyl]pyrrolidin-1-yl)(2-iodophenyl) methanone]	
1890 ± 615	1890 ± 615	O=C(C1CCCC1)N1CC(CN2CCC(c3ccccc3)CC2)C(O)(c2ccccc2)C1 (centres unmarked) [I-b-e, Cyclopentyl-(3-hydroxy-3-phenyl-4-[(4-phenylpiperidin-1-yl)methyl]pyrrolidin-1-yl)metha none]	
408 ± 10.5	408 ± 10.5	OC1(c2ccccc2)CN(Cc2ccccc2)CC1CN1CCC(CCCc2ccccc2)CC1 (centres unmarked) [I-b-g, 1-benzyl-3-phenyl-4-{[4-(3-phenylpropyl)piperidin-1-yl]methyl}pyrrolidin-3-ol]	
